Assays:
LucPpe2m146 = assay: Stability of reagent composition with LucPpe2m146 and detergent (RT, pH 7.0); format: biochemical, Photuris pennsylvanica
Procedure, shortened: (§1)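 Reagent with 50 μg/ml luciferase, luciferin, MgSO4, buffer and detergent at varying concentrations held at about 23° C; enzyme added just before first read. At timepoints, aliquots mixed 1:1 with media containing ATP and luminescence read immediately (0.5 s/well, triplicate); reaction half-lives and percent of original luminescence derived.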

LucPpy = molecular target: T1, LucPpy (Photinus pyralis, UniProt P08659); assay: Stability of reagent composition with LucPpy and detergent (RT, pH 7.0); format: biochemical; conditions: LucPpy
T1 construct: purchased Promega E170A
Procedure, shortened: as §1

C[C@H](CCC(=O)[O-])[C@H]1CC[C@H]2[C@@H]3CC[C@@H]4C[C@H](O)CC[C@]4(C)[C@H]3C[C@H](O)[C@]12C.[Na+] [Deoxycholate, sodium deoxycholate] was tested, and the “Average Relative Light Units” value (LucPpe2m146; LucPpe2m146, 0.02%, 1.0 min (head r67)) was 24307.30 rlu, the “Percent of Luminescence Remaining” value (LucPpe2m146; LucPpe2m146, 0.02%, 1.0 min (times of Table I r67)) was 100.00% and the “Average Relative Light Units” value (LucPpe2m146; LucPpe2m146, 0.02%, 34 min (head r67)) was 24639.00 rlu. The “Percent of Luminescence Remaining” value (LucPpe2m146; LucPpe2m146, 0.02%, 34 min (times of Table I r67)) was 101.36%, the “Average Relative Light Units” value (LucPpe2m146; LucPpe2m146, 0.02%, 65 min (head r67)) was 24717.97 rlu and the “Percent of Luminescence Remaining” value (LucPpe2m146; LucPpe2m146, 0.02%, 65 min (times of Table I r67)) was 101.69%. The “Average Relative Light Units” value (LucPpe2m146; LucPpe2m146, 0.02%, 115 min (head r67)) was 23158.37 rlu, the “Percent of Luminescence Remaining” value (LucPpe2m146; LucPpe2m146, 0.02%, 115 min (times of Table I r67)) was 95.27% and the “Average Relative Light Units” value (LucPpe2m146; LucPpe2m146, 0.02%, 175 min (head r67)) was 24655.43 rlu. For the same compound, the “Percent of Luminescence Remaining” value (LucPpe2m146; LucPpe2m146, 0.02%, 175 min (times of Table I r67)) was 101.43%, the “Average Relative Light Units” value (LucPpe2m146; LucPpe2m146, 0.02%, 238 min (head r67)) was 24320.6 rlu and the “Percent of Luminescence Remaining” value (LucPpe2m146; LucPpe2m146, 0.02%, 238 min (times of Table I r67)) was 100.05%. For the same compound, the “Average Relative Light Units” value (LucPpe2m146; LucPpe2m146, 0.02%, 286 min (head r67)) was 24303.9 rlu, the “Percent of Luminescence Remaining” value (LucPpe2m146; LucPpe2m146, 0.02%, 286 min (times of Table I r67)) was 99.99% and the “Average Relative Light Units” value (LucPpe2m146; LucPpe2m146, 0.1%, 1.0 min (head r54)) was 5150.43 rlu. For the same compound, the “Percent of Luminescence Remaining” value (LucPpe2m146; LucPpe2m146, 0.1%, 1.0 min (times of Table I r54)) was 100.00%, the “Average Relative Light Units” value (LucPpe2m146; LucPpe2m146, 0.1%, 34 min (head r54)) was 5031.12 rlu and the “Percent of Luminescence Remaining” value (LucPpe2m146; LucPpe2m146, 0.1%, 34 min (times of Table I r54)) was 97.68%. The “Average Relative Light Units” value (LucPpe2m146; LucPpe2m146, 0.1%, 65 min (head r54)) was 6855.67 rlu, the “Percent of Luminescence Remaining” value (LucPpe2m146; LucPpe2m146, 0.1%, 65 min (times of Table I r54)) was 133.11% and the “Average Relative Light Units” value (LucPpe2m146; LucPpe2m146, 0.1%, 115 min (head r54)) was 6340.45 rlu. For the same compound, the “Percent of Luminescence Remaining” value (LucPpe2m146; LucPpe2m146, 0.1%, 115 min (times of Table I r54)) was 123.11%, the “Average Relative Light Units” value (LucPpe2m146; LucPpe2m146, 0.1%, 175 min (head r54)) was 7347.09 rlu and the “Percent of Luminescence Remaining” value (LucPpe2m146; LucPpe2m146, 0.1%, 175 min (times of Table I r54)) was 142.65%. The “Average Relative Light Units” value (LucPpe2m146; LucPpe2m146, 0.1%, 238 min (head r54)) was 6801.23 rlu, the “Percent of Luminescence Remaining” value (LucPpe2m146; LucPpe2m146, 0.1%, 238 min (times of Table I r54)) was 132.05% and the “Average Relative Light Units” value (LucPpe2m146; LucPpe2m146, 0.1%, 286 min (head r54)) was 7472.54 rlu. For the same compound, the “Percent of Luminescence Remaining” value (LucPpe2m146; LucPpe2m146, 0.1%, 286 min (times of Table I r54)) was 145.09%, the “Average Relative Light Units” value (LucPpe2m146; LucPpe2m146, 0.5%, 15 min (head r41)) was 45.977 rlu and the “Percent of Luminescence Remaining” value (LucPpe2m146; LucPpe2m146, 0.5%, 15 min (times of Table I r41)) was 100.00%. For the same compound, the “Average Relative Light Units” value (LucPpe2m146; LucPpe2m146, 0.5%, 72 min (head r41)) was 229.874 rlu, the “Percent of Luminescence Remaining” value (LucPpe2m146; LucPpe2m146, 0.5%, 72 min (times of Table I r41)) was 499.98% and the “Average Relative Light Units” value (LucPpe2m146; LucPpe2m146, 0.5%, 124 min (head r41)) was 2059.397 rlu. For the same compound, the “Percent of Luminescence Remaining” value (LucPpe2m146; LucPpe2m146, 0.5%, 124 min (times of Table I r41)) was 4479.22%, the “Average Relative Light Units” value (LucPpe2m146; LucPpe2m146, 0.5%, 190 min (head r41)) was 1414.397 rlu and the “Percent of Luminescence Remaining” value (LucPpe2m146; LucPpe2m146, 0.5%, 190 min (times of Table I r41)) was 3076.34%. The “Average Relative Light Units” value (LucPpe2m146; LucPpe2m146, 0.5%, 251 min (head r41)) was 1342.963 rlu, the “Percent of Luminescence Remaining” value (LucPpe2m146; LucPpe2m146, 0.5%, 251 min (times of Table I r41)) was 2920.97% and the “Average Relative Light Units” value (LucPpy; 0.02%, 0.75 min (head r32)) was 3199.250 rlu. For the same compound, the “Percent of Luminescence Remaining” value (LucPpy; 0.02%, 0.75 min (times of Table I r32)) was 100.00%, the “Average Relative Light Units” value (LucPpy; 0.02%, 38 min (head r32)) was 2844.010 rlu and the “Percent of Luminescence Remaining” value (LucPpy; 0.02%, 38 min (times of Table I r32)) was 88.90%. For the same compound, the “Average Relative Light Units” value (LucPpy; 0.02%, 70 min (head r32)) was 2626.260 rlu, the “Percent of Luminescence Remaining” value (LucPpy; 0.02%, 70 min (times of Table I r32)) was 82.09% and the “Average Relative Light Units” value (LucPpy; 0.02%, 94 min (head r32)) was 2496.570 rlu. The “Percent of Luminescence Remaining” value (LucPpy; 0.02%, 94 min (times of Table I r32)) was 78.04%, the “Average Relative Light Units” value (LucPpy; 0.02%, 122 min (head r32)) was 2314.910 rlu and the “Percent of Luminescence Remaining” value (LucPpy; 0.02%, 122 min (times of Table I r32)) was 72.3%. The “Average Relative Light Units” value (LucPpy; 0.1%, 0.75 min (head r18)) was 19.771 rlu, the “Percent of Luminescence Remaining” value (LucPpy; 0.1%, 0.75 min (times of Table I r18)) was 100.00% and the “Average Relative Light Units” value (LucPpy; 0.1%, 10 min (head r18)) was 0.180 rlu. The “Percent of Luminescence Remaining” value (LucPpy; 0.1%, 10 min (times of Table I r18)) was 0.91%, the “Average Relative Light Units” value (LucPpy; 0.1%, 36 min (head r18)) was 0.026 rlu and the “Percent of Luminescence Remaining” value (LucPpy; 0.1%, 36 min (times of Table I r18)) was 0.13%. The “Average Relative Light Units” value (LucPpy; 0.5%, 0.75 min (head r5)) was 4.801 rlu, the “Percent of Luminescence Remaining” value (LucPpy; 0.5%, 0.75 min (times of Table I r5)) was 100.00% and the “Average Relative Light Units” value (LucPpy; 0.5%, 21 min (head r5)) was 0.012 rlu. For the same compound, the “Percent of Luminescence Remaining” value (LucPpy; 0.5%, 21 min (times of Table I r5)) was 0.25%, the “Average Relative Light Units” value (LucPpy; 0.5%, 39 min (head r5)) was 0.007 rlu and the “Percent of Luminescence Remaining” value (LucPpy; 0.5%, 39 min (times of Table I r5)) was 0.15%.

— patent US20030104507A1, “Method for detection of ATP” (priority 2001, published 2003)
